Consider 62 molecules from PubChem BioAssay AID651733 (The Scripps Research Institute Molecular Screening Center, 2012).

pIC50: −log10 of the molar value. Values joined by “and” are separate entries in the source; they are usually repeats but may differ in a detail not shown here. Equal values may be shown once. Active and inactive are the calls of the source. No rule for the calls is given here.

Chain of Perilipin-5 (Homo sapiens) + 1-acylglycerol-3-phosphate O-acyltransferase ABHD5 (Homo sapiens) (Q00G26 whole entry, looked up, the tested form may be a part): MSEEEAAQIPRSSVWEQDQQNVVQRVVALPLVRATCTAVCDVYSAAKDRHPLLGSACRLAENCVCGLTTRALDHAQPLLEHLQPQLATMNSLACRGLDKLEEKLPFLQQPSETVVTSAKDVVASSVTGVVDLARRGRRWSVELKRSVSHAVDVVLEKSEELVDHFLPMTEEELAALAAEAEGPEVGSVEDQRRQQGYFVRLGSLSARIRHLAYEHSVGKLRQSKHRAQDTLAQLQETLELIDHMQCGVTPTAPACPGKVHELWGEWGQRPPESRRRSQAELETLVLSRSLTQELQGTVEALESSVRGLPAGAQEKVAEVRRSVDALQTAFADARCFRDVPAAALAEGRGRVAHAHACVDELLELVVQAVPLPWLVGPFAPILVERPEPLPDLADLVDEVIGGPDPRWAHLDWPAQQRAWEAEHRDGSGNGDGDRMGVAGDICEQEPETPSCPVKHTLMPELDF
Chain of Perilipin-5 (Homo sapiens) + 1-acylglycerol-3-phosphate O-acyltransferase ABHD5 (Homo sapiens) (Q8WTS1 whole entry, looked up, the tested form may be a part): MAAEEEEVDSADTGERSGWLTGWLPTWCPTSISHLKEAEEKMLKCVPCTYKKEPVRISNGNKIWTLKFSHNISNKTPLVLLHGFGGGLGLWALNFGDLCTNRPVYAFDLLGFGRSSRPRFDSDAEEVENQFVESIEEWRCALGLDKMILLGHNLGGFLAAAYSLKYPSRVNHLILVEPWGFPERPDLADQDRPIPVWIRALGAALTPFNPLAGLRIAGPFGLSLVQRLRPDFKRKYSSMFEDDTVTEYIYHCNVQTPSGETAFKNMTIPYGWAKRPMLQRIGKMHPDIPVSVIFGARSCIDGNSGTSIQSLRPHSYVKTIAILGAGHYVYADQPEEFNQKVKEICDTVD

This assay concerns the target Perilipin-5 (Homo sapiens) + 1-acylglycerol-3-phosphate O-acyltransferase ABHD5 (Homo sapiens) (UniProt Q00G26+Q8WTS1). The experiment in a line: blockers of ABHD5 binding to perilipin-5 – cell lysate, luminescence, proteins expressed in HEK293T, dose response (AID 651733).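 Also: split Gaussia princeps luciferase complementation between ABHD5 and MLDP fusion proteins.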 Conditions: ABHD5-PLIN5 interaction.
One may read the pIC50 as −log10 of the IC50, conventionally taken in molar units. As for `CCCCCNC(=O)C(C1CC1)n1c(=O)c(-c2ccco2)nc2ccccc21` (configuration not stated), the pIC50 was 5.00.
On the same count and under the same terms, to `CC(C)(C)NC(=O)C(c1cccc2ccccc12)n1c(=O)c(-c2ccco2)nc2ccccc21` (configuration not stated) belongs 5.36; to `C#CCN(C[C@@H]1[C@@H](OC(=O)NC2CCCC2)[C@@H](OC(=O)NC2CCCC2)Cn2c(=O)ccc(=O)n21)S(=O)(=O)c1ccc(C)cc1`, 5.11.
Same read-out and setting: to `Cc1ccc(O)c(C(=O)C=Cc2ccccc2)c1` belongs 5.58; to `COc1cc(C)c2sc3ccccc3c(=O)c2c1NCCN(C)C`, 5.40.
Same read-out and setting: the value for `O=C(NC1CCCCC1)C(c1ccccc1)n1c(=O)c(-c2ccco2)nc2ccccc21` (configuration not stated) was 5.71.
`O=c1nc(/C=C/c2ccc(Cl)cc2Cl)cc(C(F)(F)F)[nH]1`: the pIC50 is 5.53.
In general, IC50 refers to the point on the concentration scale where inhibition reaches its midpoint. `COc1cc(OC)cc(C(=O)NC(=S)N(Cc2ccccc2)C(C)C)c1`: the IC50 result is “inactive”.
For `O=C(COc1ccccc1Cl)Nc1ccc(N2CCCC2)cc1`, the IC50 was > 39.9 µM (inactive).
On to `O=C(NC1CCCCC1)C(c1cccc2ccccc12)n1c(=O)c(-c2ccco2)nc2ccccc21` (configuration not stated), for which the negative-log IC50 (pIC50) is 5.63.
`CC(O)CC(=O)OC[C@]12CC[C@H]3[C@@](C)(CC[C@H]4C(C)(C)CCC[C@]34C)[C@@H]1CC(C1=CC(=O)OC1O)O2` (some centres not stated): the pIC50 is 5.86.
Still for that read-out and setting: to `O=C(/C=C/Sc1ccccc1)c1ccc(Cl)cc1` belongs 5.40.
For `COc1ccc(C)c2sc(N(CCN(C)C)C(=O)/C=C/c3cccs3)nc12`, the IC50 is > 13.3 µM (inactive).
`Cc1cccc(C)c1NC(=O)C(c1ccc(-c2ccccc2)cc1)n1c(=O)c(-c2ccco2)nc2ccccc21` (configuration not stated): the pIC50 was 5.58.
On the same count and under the same terms, the value for `COc1cc2c(cc1OC)C(C)N(CCc1ccc(Cl)cc1)CC2` (configuration not stated) was 5.27; that for `CSc1nnc(NC(=O)c2nc(S(=O)(=O)Cc3ccccc3F)ncc2Cl)s1` was 5.44; that for `N#Cc1ccc(C(C(=O)NC2CCCCC2)n2c(=O)c(-c3ccco3)nc3ccccc32)cc1` (configuration not stated) was 5.39.
On the same count and under the same terms, to `O=C(NC1CCCCC1)C(c1ccnc2ccccc12)n1c(=O)c(-c2ccco2)nc2ccccc21` (configuration not stated) belongs 5.35; to `CCCCOC(=O)Nc1cc(C(=O)OC)ccc1C(=O)OC`, 5.35; to `COc1ccc(/C=C/C(=O)c2cc(F)ccc2OC(=O)c2ccc(OC)c(OC)c2)cc1OC`, 5.49.
Consider `C=C[C@]1(C)C[C@@H](OC(=O)CSCCN(CC)CC)[C@]2(C)C(C)CC[C@]3(CCC(=O)[C@H]32)[C@@H](C)[C@@H]1O` (some centres not stated), for which the negative logarithm of the IC50 (pIC50) was 5.34.
For `O=C(CF)N(O)c1ccc(C=Cc2ccccc2)cc1`, the IC50 was > 39.9 µM (inactive).
As to `CCN1/C(=C/C=C/c2oc3ccc(-c4ccccc4)cc3[n+]2CC)Oc2ccc(-c3ccccc3)cc21`, the pIC50 was 5.95.
With `CC1=CC(C)(C)Nc2ccc(OC(=O)C(C)N3C(=O)c4ccccc4C3=O)cc21` (configuration not stated), the pIC50 was 5.44.
Take `CN(C)CCN(Cc1ccco1)c1ccccn1`: the pIC50 is 5.36.
The same measure, in the same setting: the value for `CN(C)CCOc1ccc(/C(=C(/CCCl)c2ccccc2)c2ccccc2)cc1` was 5.92.
In the case of `CN(C)CCCN(C(=O)CCc1ccccc1)c1nc2ccc(Br)cc2s1`, the IC50 result was “inactive”.
For `O=C(NCc1ccccc1)C(c1ccccc1F)n1c(=O)c(-c2ccco2)nc2ccccc21` (configuration not stated), the pIC50 was 5.35.
The same measure, in the same setting: the value for `Cc1cccc(C)c1NC(=O)C(c1ccnc2ccccc12)n1c(=O)c(-c2ccco2)nc2ccccc21` (configuration not stated) was 5.21; that for `CSc1nnc(NC(=O)c2nc(S(=O)(=O)Cc3cccc(C)c3)ncc2Cl)s1` was 5.44.
Same read-out and setting: to `C#CCN(C[C@@H]1[C@@H](OC(=O)NCc2ccccc2F)[C@@H](OC(=O)NCc2ccccc2F)Cn2c(=O)ccc(=O)n21)S(=O)(=O)c1ccc(C)cc1` belongs 5.20; to `CC(C)c1ccc(N2C=Nc3ccc(C(C)C)cc3C2)cc1`, 5.11; to `CN1[C@@H]2CC[C@H]1CC(OC1c3ccccc3CCc3ccccc31)C2` (some centres not stated), 5.62.
Same read-out and setting: the value for `Cc1ccc(CC2(OCCN(C)C)CCC(C(C)(C)C)CC2)cc1` (configuration not stated) was 5.31.
Regarding `COc1ccccc1/C=C/C(=O)c1ccccc1`, the pIC50 was 5.04.
The same measure, in the same setting: the value for `O=c1[nH]c(C2CCN(S(=O)(=O)c3ccc(S(=O)(=O)NC4CC4)cc3)CC2)nc2c1nnn2Cc1ccc(F)cc1` was 5.62; that for `O=C(/C=C/c1ccc2c(c1)OCCCO2)c1ccccc1O` was 5.29.
On the same count and under the same terms, the value for `C#CCN(C[C@@H]1[C@@H](OC(=O)NCc2ccc(OC)c(OC)c2)[C@@H](OC(=O)NCc2ccc(OC)c(OC)c2)Cn2c(=O)ccc(=O)n21)S(=O)(=O)c1ccc(C)cc1` was 5.24; that for `CCCc1nnc(NC(=O)c2nc(S(=O)(=O)Cc3cccc(C)c3)ncc2Cl)s1` was 5.31; that for `N#Cc1ccc(C(C(=O)NCc2ccccc2)n2c(=O)c(-c3ccco3)nc3ccccc32)cc1` (configuration not stated) was 5.54.
Take `CCCCCNC(=O)C(c1ccccc1F)n1c(=O)c(-c2ccco2)nc2ccccc21` (configuration not stated): the pIC50 is 5.62.
Still for that read-out and setting: the value for `CC(C)(C)NC(=O)C(c1cc2ccccc2o1)n1c(=O)c(-c2ccco2)nc2ccccc21` (configuration not stated) was 5.40.
As to `O=C(NC1CCCCC1)C(C1CC1)n1c(=O)c(-c2ccco2)nc2ccccc21` (configuration not stated), the pIC50 is 5.29.
On the same count and under the same terms, to `O=C1NC(=O)N(Cc2ccccc2)C(=O)/C1=C\C=C\c1ccco1` belongs 5.60; to `CC1CCN(S(=O)(=O)c2ccc(NC(=O)Cc3ccccc3)cc2)CC1`, 5.24; to `COc1ccc(C(C(=O)NC2CCCCC2)n2c(=O)c(-c3ccco3)nc3ccccc32)cc1` (configuration not stated), 5.41.
In the case of `O=S(=O)(NC1=NCCCCC1)c1ccc2sc(NS(=O)(=O)c3ccc4ccccc4c3)nc2c1`, the IC50 result was “inactive”.
As for `O=C(/C=C/c1ccc(NC(=O)c2ccccc2-c2ccccc2C(=O)O)cc1)c1ccccc1`, the pIC50 was 5.08.
On the same count and under the same terms, the value for `CC(C)(C)NC(=O)C(c1ccccc1F)n1c(=O)c(-c2ccco2)nc2ccccc21` (configuration not stated) was 5.38; that for `O=C1CC(c2ccc(Cl)cc2)Oc2ccc(Cl)cc21` (configuration not stated) was 5.50.
The same measure, in the same setting: the value for `CCc1nnc(NC(=O)c2nc(S(=O)(=O)Cc3ccccc3)ncc2Cl)s1` was 5.29.
For the molecule `COc1ccccc1-c1cc(C(=O)NC2CCN(C)CC2)c2ccc(Cl)c(C)c2n1`, the IC50 entry was “inactive”.
Still for that read-out and setting: the value for `CCCCC(=O)NC(c1cccc([N+](=O)[O-])c1)c1ccc2cccnc2c1O` (configuration not stated) was “inactive”.
As for `Cc1cc(C)c(NC(=O)C[N+](C)(C)CC(O)COc2cccc3ccccc23)c(C)c1` (configuration not stated), the pIC50 was 5.05.
Turning to `CC1=CC(C)(C)Nc2ccc(OC(=O)CN3C(=O)C4CCCCC4C3=O)cc21` (configuration not stated), the pIC50 is 5.40.
The same measure, in the same setting: the value for `O=CC1=C(c2ccccc2)Oc2ccccc2O1` was 5.52; that for `O=C(Nc1ccc(Cl)cc1)/C(=C/c1cccc(O)c1)c1nc2ccccc2s1` was 5.77.
Same read-out and setting: the value for `CN1CCC(=C2c3ccccc3CC(=O)c3sccc32)CC1` was 5.25 and 5.27.
Same read-out and setting: to `CCOc1cc(N)c(Cl)cc1C(=O)NCC1CN(Cc2ccc(F)cc2)CCO1` (configuration not stated) belongs 5.72; to `O=c1[nH]c(C2CCN(S(=O)(=O)c3ccc(F)cc3)CC2)nc2c1nnn2Cc1ccc2c(c1)OCCO2`, 5.08; to `COC(=O)c1cc(=O)n(-c2ccc(F)cc2)c(=Nc2ccc(F)cc2)s1`, 5.48.
As to `COc1ccc(OCc2cn(CC(=O)c3ccc(O)cc3)nn2)cc1`, the pIC50 was 5.25.
